Experimental data taken from patent publication US11021442B2, “Process for the preparation of freeze-dried 2-[(3-aminopropyl)amino] ethanethiol formulation” (CLEVEXEL PHARMA, priority 2016, dated 2021).

Columns and labels:
[1] = tested on: radiation-induced oral mucositis; assay: Efficacy study, radiation-induced oral mucositis, 20 Gy single fraction (Example F-2); assay type: in vivo, C57BL/6 mice
Description: Female C57BL/6 mice (12 weeks old) purchased from Janvier CERT (Le Genest St. Isle, France) were used after an acclimation time of 7 days. They had free access to food (SAFE reference R0340, Augy, France) and water. They were housed on a 12 hours light/dark cycle at a room temperature of 22° C.±2° C. and a relative humidity of 55%±15%.
Irradiation was carried out locally with a X-ray Varian NDI 226 tube (200 kV, 15 mA, 0.2 mm Cu) at a dose rate of 1.33 Gy/min, the rest of the body being protected by a lead shield. Mice were euthanized when body weight loss exceeded 20% of the initial weight for more than 24 hours or in case of severe clinical signs (ethical endpoints). […]
Two parameters were monitored: the body weight and the Parkins score. This represents an arbitrary score system devised by Parkins and co-workers with separate scores for edema and erythema evaluated by macroscopic observation (Parkins, C. S., Fowler, J. F., and Yu, S. (1983). A murine model of lip epidermal/mucosal reactions to X-irradiation. Radiotherapy and oncology: Journal of the European Society for Therapeutic Radiology and Oncology 1, 159-165). […]
The Parkins score is calculated as follows: “Parkins score”=edema score+erythema score.
A single dose irradiation was delivered to the snout of mice. This induced a mucosal/epidermal lip reaction that was monitored through macroscopic observation and scoring. […]

[2] = tested on: radiation-induced oral mucositis; assay: Second efficacy study, radiation-induced oral mucositis, 18 Gy single fraction (Example F-4); assay type: in vivo, mice
Description: The experiment was conducted with gels containing 20, 40 or 80 mg/ml Amifostine (corresponding to 12.5, 25 or 50 mg/ml amifostine thiol respectively). A lower dose of irradiation (a single fraction irradiation of 18 Gy) was delivered to the snout, so that all the mice could be kept alive until the end of the experiment. Different amounts of compound were administered to mice (1; 2 or 4 mg per mouse).
The same experimental procedure as for in example F-2 was used. Briefly, mice were anesthetized, Amifostine or Amifostine thiol was delivered 10 minutes later or not depending on the group (gel application or intravenous injection), mice were irradiated dorsally at an 18 Gy dose 30 minutes after the administration of Amifostine or Amifostine thiol and awakened 20 minutes later.
[…] were allocated to 6 groups: • Control (n=6 mice); • Placebo gel (n=6 mice); • Amifostine thiol 20 mg/ml gel (1 mg amifostine/mouse, n=6 mice); • Amifostine thiol 40 mg/ml gel (2 mg amifostine/mouse, n=6 mice); • Amifostine thiol 80 mg/ml gel (4 mg amifostine/mouse, n=6 mice); and • Amifostine intravenous (IV) (20 mg/ml) (4 mg amifostine/mouse, n=5 mice).
For each group, the development of oral mucositis was evaluated on 5 or 6 mice depending on the group. An 18 Gy dose irradiation induced a less severe phenotype than the 20 Gy dose irradiation that was used in the first efficacy experiment.

[3] = tested on: radiation-induced oral mucositis; assay: Third efficacy study, radiation-induced oral mucositis, four fractions of 8 Gy (Example F-6); assay type: in vivo, mice
Source text: Four fractions of 8 Gy were delivered for four consecutive days (everyday from day 0 to day 3; day 0 corresponding to the first day of treatment) to the snout. The fractionation scheme of four fractions of 8 Gy was chosen, because it is biologically equivalent to 1 fraction of 18 Gy (Biologically Effective Dose: BED 120 Gy). […] Thus, the compound was applied 4 times for four consecutive days. For each day, a similar experimental procedure as for in example F-2 was used. […] The same experimental procedure was repeated for 4 consecutive days.

[4] = Stability of lyophilized powder of aminothiol (WR-1065) at 25° C./60% RH under argon; assay type: physicochemical
Description: A stability study is performed to compare stability of: • WR-1065 obtained by conversion of amifostine (350 mg/ml or 500 mg/ml) in acidic condition (respectively HCl 1M or HCl 4M), diluted in water or in P407/P188 mixture and then lyophilized (based on examples described in parts A & B), and • WR-1065 hydrochloride salt crystalline powder.
Stability is assessed by analysis of samples stored under argon atmosphere at 25° C./60% RH. The aim of argon is to provide two materials under same stability condition.

[5] = T1m-25° C./60% RH, under argon atm.
[6] = T15d-25° C./60% RH, under argon atm.

Amifostine ([4]; T0, under argon atm.) [%] | Aminothiol ([4]; T0, under argon atm.) [%] | Disulfides ([4]; T0, under argon atm.) [%] | Unknow ([4]; T0, under argon atm.) | Amifostine [4, 5] [%] | Aminothiol [4, 5] [%] | Disulfides [4, 5] [%] | Unknow [4, 5] [%] | Amifostine [4, 6] [%] | Aminothiol [4, 6] [%] | Disulfides [4, 6] [%] | Unknow [4, 6] | SMILES | effect on development and intensity of mucositis (Parkins score), in words ([1]; 20 Gy single fraction to snout, 4 mg amifostine/mouse 30 minutes before irradiation, thiol gel = Gel n°1, Amifostine gel = Gel n°2) | day after irradiation at which edema and erythema completely disappeared ([1]; 20 Gy single fraction, 4 mg amifostine/mouse IV) [days] | effect on mucositis peak and healing period, in words [2] | day of acute peak of mucosal reaction ([2]; IV 4 mg amifostine/mouse) [days] | Parkins score at the peak of mucosal reaction ([2]; gels 1, 2 or 4 mg amifostine/mouse, IV 4 mg/mouse, 30 minutes before irradiation) | day of acute peak of mucosal reaction ([3]; IV 2 mg amifostine/mouse) [days] | Parkins score at the peak of mucosal reaction ([3]; day 0 to day 3, 2 mg amifostine per mouse before each fraction, thiol gel = Gel n°9)
– | – | – | – | – | – | – | – | – | – | – | – | NCCCNCCSP(=O)(O)O [Amifostine IV, Amifostine] | mucosal reaction of moderate intensity | 20 | healing period was nearly absent | 12 | 2.2 | ~15 | 2.6
0 | 99.7 | 0.3 | <LOQ | 0 | 99.3 | 0.5 | 0.2 | 0 | 99.6 | 0.4 | <LOQ | NCCCNCCS [WR-1065•2HCl native, 2-[(3-aminopropyl)amino]ethanethiol] | – | – | – | – | – | – | –
